Patent US20250109121A1, “POTENT AND SELECTIVE SMARCA2 DEGRADING CHIMERIC MOLECULES AS CANCER THERAPEUTICS” (BOARD OF REGENTS, THE UNIVERSITY OF TEXAS SYSTEM, priority 2021, published 2025)
Like-named read-outs stand apart in the source and are kept apart here.

What was measured:
[1] = test system: HCC515 lung cancer xenograft; experiment: In vivo anti-tumor efficacy, HCC515 lung cancer xenograft model; details: female NCR Nude mice, 12.5 mg/kg intraperitoneally once daily in 15% Solutol with 12.5 mg/kg ritonavir, versus vehicle
Experimental: About 1×10^7 HCC515 cells were injected into the flanks of female NCR Nude Mice. Tumor take was monitored visually and by palpation bi-weekly. Once tumors reached an average volume of 100 mm^3 mice were randomized into control and SMARCA2 degrader groups. Treatment cohorts were as follows: Vehicle was 15% Solutol in water together with 12.5 mg/kg of ritonavir as metabolic stabilizer. In the vehicle group, ten animals were injected with vehicle intraperitoneally. In the treatment group, ten animals were injected intraperitoneally once daily with 12.5 mg/kg of the SMARCA2 degrader Compound 101 in 15% Solutol in water together with 12.5 mg/kg of ritonavir as metabolic stabilizer.
Tumor diameter and volume were calculated based on caliper measurements of tumor length and […] using the formula tumor volume=(length×width^2)/2. Tumor volume and body weight were measured three times a week.

HCC44 = experiment: Cell proliferation (colony assay) IC50; format: cell-based; details: Homo sapiens; HCC44, wild-type SMARCA4
Experimental: (§1) Cell lines with wild-type SMARCA4 (HCC44, H2122, H1792 and H1975) and cell lines with mutant SMARCA4 (H1693, HCC515, H322, and H1299) were seeded in appropriate dilutions to form colonies in about 1-3 weeks. Cells were treated with ACBI1 or Compound 101 at concentrations of 0.001, 0.01, 0.1, 1, and 10 μm. Colonies were fixed with glutaraldehyde (6% v/v), stained with crystal violet (0.5% w/v) and the percent area of colonies was determined (FIGS. 3A and 3B). In cell lines with wild-type SMARCA4, inhibition of colony growth was more pronounced after treatment with ACBI1 than Compound 101 (FIG. 3A).

H1792 = experiment: Cell proliferation (colony assay) IC50; format: cell-based; details: Homo sapiens, NCI-H1792; H1792, wild-type SMARCA4
Experimental: as §1

H1693 = experiment: Cell proliferation (colony assay) IC50; format: cell-based; details: Homo sapiens, NCI-H1693; H1693, mutant SMARCA4
Experimental: as §1

H322 = experiment: Cell proliferation (colony assay) IC50; format: cell-based; details: NCI-H322; H322, mutant SMARCA4
Experimental: as §1

H1975 = experiment: Cell proliferation (colony assay) IC50; format: cell-based; details: Homo sapiens, NCI-H1975; H1975, wild-type SMARCA4; concentration at which 50% of cellular proliferation is inhibited
Experimental: as §1

H2122 = experiment: Cell proliferation (colony assay) IC50; format: cell-based; details: Homo sapiens, NCI-H2122; H2122, wild-type SMARCA4
Experimental: as §1

HCC515 = experiment: Cell proliferation (colony assay) IC50; format: cell-based; details: Homo sapiens; HCC515, mutant SMARCA4
Experimental: as §1

SMARCA2 [2] = target: T1, SMARCA2 (Homo sapiens, UniProt P51531); experiment: SMARCA2 degradation in cell lines, western blot; format: cell-based
SMARCA2 [3] = target: T1, SMARCA2; experiment: SMARCA2 degradation in cell lines, western blot; format: cell-based; remark: listed apart in the source
Experimental: Cell lines with wild-type SMARCA4 (H1975, H1792, H2122, and H441) were treated with DMSO or 0.001, 0.01, 0.1, 1, or 10 μm of ACBI1 (degrader of SMARCA2, SMARCA4 and polybromo-associated BAF complex PBRM1) or Compound 101 and expression levels of SMARCA2 (FIG. 2A) and SMARCA4 (FIG. 2B) were detected by western blot.
Cell lines with wild-type SMARCA4 (H1792) and mutant SMARCA4 (H1299) were treated for 72 h or 96 h with DMSO or 0.001, 0.01, 0.1, 1, or 10 μm Compound 103 and analyzed by western blot for SMARCA2, SMARCA4, and PBRM1 expression (FIGS. 4A, 4B, and 4C).
Cell lines with wild-type SMARCA4 (H1792) and mutant SMARCA4 (H1299) were treated for 72 h or 96 h with DMSO or 0.001, 0.01, 0.1, 1, or 10 μm Compound 102 and analyzed by western blot for SMARCA2, SMARCA4, and PBRM1 expression (FIGS. 5A, 5B, and 5C).
Cell lines with wild-type SMARCA4 (H1975) were treated with DMSO or 0.001, 0.01, 0.1, 1, or 10 μm of Compounds 104, 105, 106, 107, or 108 and analyzed by western blot for SMARCA2, SMARCA4, and PBRM1 expression (FIGS. 6A and 6B).

H2126 = experiment: Cell proliferation (colony assay) IC50; format: cell-based; details: Homo sapiens, NCI-H2126; H2126, mutant SMARCA4

T1 sequence (P51531 whole entry): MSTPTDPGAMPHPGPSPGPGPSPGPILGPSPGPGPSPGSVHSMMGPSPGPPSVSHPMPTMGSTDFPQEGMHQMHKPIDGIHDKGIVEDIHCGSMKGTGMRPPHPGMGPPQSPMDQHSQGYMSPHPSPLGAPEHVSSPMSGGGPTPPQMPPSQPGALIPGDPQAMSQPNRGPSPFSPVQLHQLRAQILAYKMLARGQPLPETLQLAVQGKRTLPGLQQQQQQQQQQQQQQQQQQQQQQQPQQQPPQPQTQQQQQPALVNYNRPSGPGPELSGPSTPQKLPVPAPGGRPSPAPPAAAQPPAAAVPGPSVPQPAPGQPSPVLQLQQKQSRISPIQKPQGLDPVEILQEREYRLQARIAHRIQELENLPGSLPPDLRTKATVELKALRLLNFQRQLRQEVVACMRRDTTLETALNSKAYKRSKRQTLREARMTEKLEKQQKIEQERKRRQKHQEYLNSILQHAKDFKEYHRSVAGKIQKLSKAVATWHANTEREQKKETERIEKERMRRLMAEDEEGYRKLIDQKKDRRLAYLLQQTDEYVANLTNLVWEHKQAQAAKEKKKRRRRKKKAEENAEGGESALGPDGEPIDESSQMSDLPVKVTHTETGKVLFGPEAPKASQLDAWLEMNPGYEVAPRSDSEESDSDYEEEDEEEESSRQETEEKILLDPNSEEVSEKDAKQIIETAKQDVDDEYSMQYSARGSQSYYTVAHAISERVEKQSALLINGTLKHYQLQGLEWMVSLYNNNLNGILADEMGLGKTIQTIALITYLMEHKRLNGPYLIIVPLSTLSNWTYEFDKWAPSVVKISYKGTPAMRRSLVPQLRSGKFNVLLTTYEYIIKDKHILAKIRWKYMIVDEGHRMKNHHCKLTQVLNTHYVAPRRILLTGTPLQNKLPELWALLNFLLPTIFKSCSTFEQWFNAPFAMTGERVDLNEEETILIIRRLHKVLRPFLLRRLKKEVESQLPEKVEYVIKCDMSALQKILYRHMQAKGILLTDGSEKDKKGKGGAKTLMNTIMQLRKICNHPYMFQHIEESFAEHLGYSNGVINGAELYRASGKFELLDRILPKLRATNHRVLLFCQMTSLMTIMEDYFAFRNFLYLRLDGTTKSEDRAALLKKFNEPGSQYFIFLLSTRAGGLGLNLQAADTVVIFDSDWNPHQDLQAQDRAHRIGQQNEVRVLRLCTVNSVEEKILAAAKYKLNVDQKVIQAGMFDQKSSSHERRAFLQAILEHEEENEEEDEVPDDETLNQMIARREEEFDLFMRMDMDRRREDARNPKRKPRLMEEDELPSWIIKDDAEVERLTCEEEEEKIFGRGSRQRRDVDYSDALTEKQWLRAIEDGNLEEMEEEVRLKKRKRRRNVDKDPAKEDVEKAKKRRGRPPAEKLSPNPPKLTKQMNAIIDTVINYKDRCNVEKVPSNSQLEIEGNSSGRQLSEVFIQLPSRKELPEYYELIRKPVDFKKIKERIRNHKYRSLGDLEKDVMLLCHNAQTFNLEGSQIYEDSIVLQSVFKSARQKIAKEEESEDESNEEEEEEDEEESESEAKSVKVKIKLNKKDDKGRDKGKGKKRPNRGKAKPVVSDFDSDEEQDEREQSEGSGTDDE

In the case of `Nc1nnc(-c2ccccc2O)cc1N1CCN(Cc2ccc(OCCOCCNc3cccc4c3C(=O)N(C3CCC(=O)NC3=O)C4=O)c(F)c2)CC1` (stereo not drawn) [Compound 101], the “tumor volume (in words)” value [1] is reported as “substantial reduction in tumor volume”, the IC50 (HCC44) is reported as 2500 nM and the IC50 (H1792) is reported as 8700 nM. For the same molecule, the IC50 (H1693) was 141 nM, the IC50 (H322) was 93 nM and the IC50 (H1975) was over 10000 nM. It also gave an IC50 (H2122) of 2600 nM, an IC50 (HCC515) of 817 nM and a Dmax (SMARCA2 [2]; A549, A549, mutant SMARCA4 cell line, read-out: SMARCA2 Dmax (%)) of 96%. The DC50 (SMARCA2 [2]; A549, mutant SMARCA4 cell line) was 57 nM, the DC50 (SMARCA2 [2]; H322, mutant SMARCA4 cell line) was 27 nM and the DC50 (SMARCA2 [2]; H838, mutant SMARCA4 cell line) was 26 nM. The DC50 (SMARCA2 [2]; H1693, mutant SMARCA4 cell line) was 113 nM, the DC50 (SMARCA2 [2]; H1793, mutant SMARCA4 cell line) was 2 nM and the DC50 (SMARCA2 [2]; H2023, mutant SMARCA4 cell line) was 42 nM. The DC50 (SMARCA2 [2]; H2126, mutant SMARCA4 cell line) was 10 nM, the DC50 (SMARCA2 [2]; H2228, wild-type SMARCA4 cell line) was 106 nM and the DC50 (SMARCA2 [2]; H2935, mutant SMARCA4 cell line) was 8 nM. The Dmax (SMARCA2 [2]; H2935, mutant SMARCA4 cell line, read-out: SMARCA2 Dmax (%)) was 83%, the Dmax (SMARCA2 [2]; HCC44, HCC44, wild-type SMARCA4 cell line, read-out: SMARCA2 Dmax (%)) was 99% and the DC50 (SMARCA2 [2]; HCC44, wild-type SMARCA4 cell line) was 69 nM. It also gave a Dmax (SMARCA2 [2]; HCC366, HCC366, mutant SMARCA4 cell line, read-out: SMARCA2 Dmax (%)) of 99%, a DC50 (SMARCA2 [2]; HCC366, mutant SMARCA4 cell line) of 13 nM and a Dmax (SMARCA2 [2]; HCC515, HCC515, mutant SMARCA4 cell line, read-out: SMARCA2 Dmax (%)) of 81%. The DC50 (SMARCA2 [2]; HCC515, mutant SMARCA4 cell line) was 83 nM, the Dmax (SMARCA2 [2]; HCC827, HCC827, wild-type SMARCA4 cell line, read-out: SMARCA2 Dmax (%)) was 83% and the DC50 (SMARCA2 [2]; HCC827, wild-type SMARCA4 cell line) was 70 nM. The DC50 (SMARCA2 [2]; HCC2279, wild-type SMARCA4 cell line) was 32 nM, the Dmax (SMARCA2 [2]; HCC2279, wild-type SMARCA4 cell line, read-out: SMARCA2 Dmax (%)) was 99% and the DC50 (SMARCA2 [2]; HOP62, wild-type SMARCA4 cell line) was 33 nM. The Dmax (SMARCA2 [2]; HOP-62, HOP62, wild-type SMARCA4 cell line, read-out: SMARCA2 Dmax (%)) was 99%, the Dmax (SMARCA2 [2]; NCI-H322, H322, mutant SMARCA4 cell line, read-out: SMARCA2 Dmax (%)) was 99% and the Dmax (SMARCA2 [2]; NCI-H441, H441, wild-type SMARCA4 cell line, read-out: SMARCA2 Dmax (%)) was 67%. The Dmax (SMARCA2 [2]; NCI-H838, H838, mutant SMARCA4 cell line, read-out: SMARCA2 Dmax (%)) was 98%, the Dmax (SMARCA2 [2]; NCI-H1693, H1693, mutant SMARCA4 cell line, read-out: SMARCA2 Dmax (%)) was 84% and the Dmax (SMARCA2 [2]; NCI-H1792, H1792, wild-type SMARCA4 cell line, read-out: SMARCA2 Dmax (%)) was 89%. It also gave a Dmax (SMARCA2 [2]; NCI-H1793, H1793, mutant SMARCA4 cell line, read-out: SMARCA2 Dmax (%)) of 99%, a Dmax (SMARCA2 [2]; NCI-H1975, H1975, wild-type SMARCA4 cell line, maximum degradation as percentage of DMSO control, read-out: SMARCA2 Dmax (%)) of 93% and a Dmax (SMARCA2 [2]; NCI-H2023, H2023, mutant SMARCA4 cell line, read-out: SMARCA2 Dmax (%)) of 99%. It also gave a Dmax (SMARCA2 [2]; NCI-H2122, H2122, wild-type SMARCA4 cell line, read-out: SMARCA2 Dmax (%)) of 94%, a Dmax (SMARCA2 [2]; NCI-H2126, H2126, mutant SMARCA4 cell line, read-out: SMARCA2 Dmax (%)) of 99% and a Dmax (SMARCA2 [2]; NCI-H2228, H2228, wild-type SMARCA4 cell line, read-out: SMARCA2 Dmax (%)) of 82%. For the same molecule, the Dmax (SMARCA2 [2]; mutant SMARCA4 cells (Table 5), read-out: SMARCA2 Dmax, span over cell lines) was 81 to 99%, the Dmax (SMARCA2 [2]; wild-type SMARCA4 cells (Table 4), read-out: SMARCA2 Dmax, span over cell lines) was 82 to 99% and the DC50 (SMARCA2 [3]; H441, wild-type SMARCA4 cell line) was 99 nM. For the same molecule, the DC50 (SMARCA2 [3]; H1792, wild-type SMARCA4 cell line) was 94 nM, the “SMARCA2 degradation (western blot, in words)” value (SMARCA2 [3]; H1975, H1792, H2122, H441, 0.001-10 μm, increasing concentrations) was “degraded SMARCA2 and SMARCA4” and the DC50 (SMARCA2 [3]; H1975, wild-type SMARCA4 cell line, concentration at which 50% of the target protein is degraded) was 103 nM. The DC50 (SMARCA2 [3]; H2122, wild-type SMARCA4 cell line) was 292 nM, the “selectivity in degrading SMARCA2 compared to SMARCA4, relative to ACBI1” value (SMARCA2 [3]; wild-type SMARCA4 cell lines H1975, H1792, H2122, H441) was “greater than 100 times” and the IC50 (H2126) was about 20 nM.
